According to patent US20060078494A1, “Use of inhibitors of 24-hydroxylase in the treatment of cancer” (Sapphire Therapeutics, Inc., priority 2004, published 2006):

Legend:
[1] = tested on: Human RL B-lymphoma cells; assay: Human RL B-lymphoma cells in SCID mice; type: in vivo; conditions: expected
Description: Human RL B-lymphoma cells (Beckwith et al. (1990) J. Nat. Cancer Inst. 82, 501) are maintained in vitro by passage in growth medium. The cells are washed thoroughly in PBS to remove culture components. SCID mice are injected with one million human lymphoma cells via the tail vein in 100 microliters (μl). 24-hydroxylase inhibitor treatment is initiated the following day by daily intraperitoneal (i.p.) injection of 3 mg/kg 24-hydroxylase inhibitor (VID400), alone or in combination with doxorubicin at 5 mg/kg, or vehicle. Mice are monitored for survival and significant morbidity. […] Depending on the lymphoma cell line employed, the untreated mice typically die within 3 to 6 weeks.

[2] = tested on: C57BL6 murine ID8 ovarian carcinoma cell line; assay: Mouse syngeneic model of ovarian carcinoma (ID8 VEGF164/GFP); type: in vivo, C57BL6 mice; conditions: expected; for tumor growth delay compared with vehicle control: single agent (inhibitor 2 mg/kg; cisplatin 2 or 6 mg/kg)
Description: The efficacy of a 24-hydroxylase inhibitor, alone or in combination with a chemotherapeutic agent is tested in a mouse syngeneic model of ovarian carcinoma using methods as described in Zhang et al., (Am. J. of Pathol. (2002) 161:2295-2309). Briefly, using retroviral transfection and fluorescence-activated cell sorting, a C57BL6 murine ID8 ovarian carcinoma cell line is generated that stably overexpresses the murine VEGF164 isoform and the enhanced green fluorescence protein (GFP). The retroviral construct containing VEGF164 and GFP cDNAs is then transfected into BOSC23 cells. The cells are analyzed by FACS cell sorting, and cells showing high GFP fluorescence are identified and isolated. The ID8 VEGF164/GFP transfected cells are cultured to subconfluence and prepared in a single-cell suspension in phosphate buffer saline (PBS) and cold […] (BD Biosciences, Bedford, Mass.). Six to eight week old female C57BL6 mice are injected subcutaneously in the flank with 5×10^6 transfected or untransfected (control) cells. Animals are sacrificed eight weeks after inoculation and evaluated for tumor growth. Mice are treated with a 24-hydroxylase inhibitor (VID 400/RC-8800) beginning 3-14 days following tumor implantation. Mice are treated in the following groups, with 5 mice for each group:
The agents are administered on a daily basis for 14 days. Animals are monitored daily for body weight, and significant morbidity.

[3] = target: T1, 24-hydroxylase (CYP24) (Homo sapiens, UniProt Q07973); conditions: identified by Schuster et al., J. Cell. Biochem. 88:372-380 (2003); cited from earlier work
T1 construct: confluent cultures of human keratinocytes are isolated from adult skin in serum-free keratinocyte growth medium; endogenous in cells; host or cells: primary human keratinocytes from adult skin
T1 sequence (Q07973 36-514): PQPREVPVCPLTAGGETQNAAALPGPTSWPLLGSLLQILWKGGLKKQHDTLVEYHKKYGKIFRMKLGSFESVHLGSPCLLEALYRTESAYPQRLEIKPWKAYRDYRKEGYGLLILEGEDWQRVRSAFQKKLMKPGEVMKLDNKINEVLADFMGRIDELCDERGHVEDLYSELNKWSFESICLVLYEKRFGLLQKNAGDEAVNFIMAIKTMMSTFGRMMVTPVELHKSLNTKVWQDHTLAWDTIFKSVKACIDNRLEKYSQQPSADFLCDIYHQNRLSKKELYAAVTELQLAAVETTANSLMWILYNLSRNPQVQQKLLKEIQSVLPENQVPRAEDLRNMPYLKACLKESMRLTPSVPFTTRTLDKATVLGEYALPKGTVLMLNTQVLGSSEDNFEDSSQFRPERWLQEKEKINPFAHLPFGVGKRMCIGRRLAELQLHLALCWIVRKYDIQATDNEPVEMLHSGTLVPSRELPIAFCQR

[4] = target: T2, 24-hydroxylase (Homo sapiens, UniProt Q07973); conditions: described by Kahraman et al., J. Med. Chem. 47:6854-6863 (2004); cited from earlier work
T2 sequence (Q07973 36-514): T1 sequence (Q07973 36-514)

Which results are given for O=C(NC[C@@H](c1ccccc1)n1ccnc1)c1ccc(-c2ccc(Cl)cc2)cc1 [(R)-VID400, 2-(R)-4′-Chlorobiphenyl-4-carboxylic acid (2-imidazol-1-yl-2-phenyl-ethyl)-amide]?
inhibition in tumor growth ([1]; VID400 3 mg/kg i.p. daily in combination with doxorubicin 5 mg/kg): highest growth inhibition; tumor growth delay ([2]; 24-hydroxylase inhibitor 2 mg/kg + cisplatin 2 or 6 mg/kg, daily for 14 days, vs cisplatin alone at same dosage or inhibitor alone): delay longer than cisplatin alone; body weight ([2]; 24-hydroxylase inhibitor 2 mg/kg + cisplatin, vs vehicle or single therapy controls of same dosage): maintain body weight significantly more; tumor growth delay compared with vehicle control ([2]; daily for 14 days): significant delay; inhibition of 24-hydroxylase [3]: potent inhibitors

With N.N.[Cl][Pt][Cl] [Cisplatin, reference compound] as the compound, how does the “tumor growth delay compared with vehicle control” value ([2]; daily for 14 days) read?
The value was “significant delay”.

For C=C1/C(=C\C=C2/CCCC3(C)C2CC[C@@H]3[C@H](C)CCS(=N)(=O)c2ccc(F)cc2)C[C@@H](O)C[C@@H]1O (stereo partly drawn) [Formula VI], which “potency as 24-hydroxylase inhibitor (structure activity relationships)” value [4] is on record?
Its value is “slightly less potent”.

With C=C1/C(=C\C=C2/CCCC3(C)C2CC[C@@H]3[C@H](C)CCS(=N)(=O)c2ccccc2)C[C@@H](O)C[C@@H]1O (stereo partly drawn) [Formula V] as the compound, how does the “potency as 24-hydroxylase inhibitor (structure activity relationships)” value [4] read?
The value was “most potent”.

For COc1cccc2c1C(=O)c1c(O)c3c(c(O)c1C2=O)C[C@@](O)(C(=O)CO)C[C@@H]3O[C@H]1C[C@H](N)[C@H](O)[C@H](C)O1 [doxorubicin, reference compound], which “inhibition in tumor growth” value ([1]; doxorubicin 5 mg/kg alone, SCID mice, RL B-lymphoma) is on record?
Its value is “significant inhibition”.
